According to PubChem BioAssay (NCI):
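Briefly, cells in 96-well plates were exposed to five compound concentrations for 48 h, and endpoints were estimated by linear interpolation. GI50: concentration for 50% inhibition of growth. TGI: total growth inhibition.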

How the values were obtained:
Assay in all cases: NCI anticancer screen, dose series, 48 h
HT29 colon = system: HT29 colon
NCI-H460 lung = system: NCI-H460 lung
SN12C renal = system: SN12C renal
EKVX NSCLC = system: EKVX NSCLC
T-47D breast = system: T-47D breast
MDA-MB-231 breast = system: MDA-MB-231 breast
NCI-H23 lung = system: NCI-H23 lung
A498 renal = system: A498 renal
OVCAR-4 ovarian = system: OVCAR-4 ovarian
HOP-62 NSCLC = system: HOP-62 NSCLC
CAKI-1 renal = system: CAKI-1 renal
MCF7 breast = system: MCF7 breast
COLO 205 colon = system: COLO 205 colon
NCI-H522 lung = system: NCI-H522 lung
SW-620 colon = system: SW-620 colon
SK-OV-3 ovarian = system: SK-OV-3 ovarian
A549 NSCLC = system: A549 NSCLC
RPMI-8226 leukemia = system: RPMI-8226 leukemia
BT-549 breast = system: BT-549 breast
HCC-2998 colon = system: HCC-2998 colon
SNB-19 CNS = system: SNB-19 CNS
SF-268 CNS = system: SF-268 CNS
SF-295 CNS = system: SF-295 CNS
MDA-MB-435 = system: MDA-MB-435
M14 melanoma = system: M14 melanoma
SK-MEL-28 melanoma = system: SK-MEL-28 melanoma
RXF 393 renal = system: RXF 393 renal
PC-3 prostate = system: PC-3 prostate
MALME-3M melanoma = system: MALME-3M melanoma
786-0 renal = system: 786-0 renal
OVCAR-3 ovarian = system: OVCAR-3 ovarian
MOLT-4 leukemia = system: MOLT-4 leukemia
UACC-257 melanoma = system: UACC-257 melanoma
OVCAR-5 ovarian = system: OVCAR-5 ovarian
OVCAR-8 ovarian = system: OVCAR-8 ovarian
HOP-92 NSCLC = system: HOP-92 NSCLC
HCT-116 colon = system: HCT-116 colon
HCT-15 colon = system: HCT-15 colon
SK-MEL-5 melanoma = system: SK-MEL-5 melanoma
SR leukemia = system: SR leukemia
HS 578T breast = system: HS 578T breast
CCRF-CEM leukemia = system: CCRF-CEM leukemia
KM12 colon = system: KM12 colon
NCI/ADR-RES ovarian = system: NCI/ADR-RES ovarian
U251 CNS = system: U251 CNS
LOX IMVI melanoma = system: LOX IMVI melanoma
SNB-75 CNS = system: SNB-75 CNS
TK-10 renal = system: TK-10 renal
IGROV1 ovarian = system: IGROV1 ovarian
SF-539 CNS = system: SF-539 CNS
NCI-H226 lung = system: NCI-H226 lung
DU-145 prostate = system: DU-145 prostate
UO-31 renal = system: UO-31 renal
HL-60(TB) leukemia = system: HL-60(TB) leukemia
ACHN renal = system: ACHN renal
UACC-62 melanoma = system: UACC-62 melanoma
SK-MEL-2 melanoma = system: SK-MEL-2 melanoma
K-562 leukemia = system: K-562 leukemia

COc1ccc2c(c1)C(=O)c1c-2n(CCCCl)c(=O)c2cc(OC)c(OC)cc12
GI50 (HT29 colon): > 52.1 µM | TGI (HT29 colon): > 100 µM | GI50 (NCI-H460 lung): 2.4 µM | TGI (NCI-H460 lung): > 100 µM | GI50 (SN12C renal): 6.67 µM | TGI (SN12C renal): > 100 µM | GI50 (EKVX NSCLC): > 100 µM | TGI (EKVX NSCLC): > 100 µM | GI50 (T-47D breast): 13.5 µM | TGI (T-47D breast): > 100 µM | GI50 (MDA-MB-231 breast): > 100 µM | TGI (MDA-MB-231 breast): > 100 µM | GI50 (NCI-H23 lung): 15.5 µM | TGI (NCI-H23 lung): > 100 µM | GI50 (A498 renal): > 52.5 µM | TGI (A498 renal): > 100 µM | GI50 (OVCAR-4 ovarian): > 91.7 µM | TGI (OVCAR-4 ovarian): > 100 µM | GI50 (HOP-62 NSCLC): 5.13 µM | TGI (HOP-62 NSCLC): > 51.3 µM | GI50 (CAKI-1 renal): 6.47 µM | TGI (CAKI-1 renal): > 24.4 µM | GI50 (MCF7 breast): 6.27 µM | TGI (MCF7 breast): > 100 µM | GI50 (COLO 205 colon): > 100 µM | TGI (COLO 205 colon): > 100 µM | GI50 (NCI-H522 lung): 9.12 µM | TGI (NCI-H522 lung): > 95 µM | GI50 (SW-620 colon): 19.6 µM | TGI (SW-620 colon): > 100 µM | GI50 (SK-OV-3 ovarian): 28.6 µM | TGI (SK-OV-3 ovarian): > 100 µM | GI50 (A549 NSCLC): 12 µM | TGI (A549 NSCLC): > 100 µM | GI50 (RPMI-8226 leukemia): 2.14 µM | TGI (RPMI-8226 leukemia): 14.5 µM | GI50 (BT-549 breast): > 100 µM | TGI (BT-549 breast): > 100 µM | GI50 (HCC-2998 colon): 17.4 µM | TGI (HCC-2998 colon): > 95.9 µM | GI50 (SNB-19 CNS): 13.2 µM | TGI (SNB-19 CNS): > 100 µM | GI50 (SF-268 CNS): 8.63 µM | TGI (SF-268 CNS): > 100 µM | GI50 (SF-295 CNS): 3.99 µM | TGI (SF-295 CNS): > 100 µM | GI50 (MDA-MB-435): 42.5 µM | TGI (MDA-MB-435): > 100 µM | GI50 (M14 melanoma): 6.24 µM | TGI (M14 melanoma): > 100 µM | GI50 (SK-MEL-28 melanoma): > 79.4 µM | TGI (SK-MEL-28 melanoma): > 100 µM | TGI (RXF 393 renal): > 21.1 µM | GI50 (PC-3 prostate): 41.5 µM | TGI (PC-3 prostate): > 100 µM | GI50 (MALME-3M melanoma): 18.6 µM | TGI (MALME-3M melanoma): > 96.1 µM | GI50 (786-0 renal): 5.41 µM | TGI (786-0 renal): 31.7 µM | GI50 (OVCAR-3 ovarian): 82.3 µM | TGI (OVCAR-3 ovarian): > 100 µM | GI50 (MOLT-4 leukemia): 2.55 µM | TGI (MOLT-4 leukemia): 6.29 µM | GI50 (UACC-257 melanoma): 45.3 µM | TGI (UACC-257 melanoma): > 100 µM | GI50 (OVCAR-5 ovarian): > 100 µM | TGI (OVCAR-5 ovarian): > 100 µM | GI50 (OVCAR-8 ovarian): 53.4 µM | TGI (OVCAR-8 ovarian): > 100 µM | GI50 (HOP-92 NSCLC): > 32.6 µM | TGI (HOP-92 NSCLC): > 86.4 µM | GI50 (HCT-116 colon): 8.68 µM | TGI (HCT-116 colon): > 100 µM | GI50 (HCT-15 colon): > 96.4 µM | TGI (HCT-15 colon): > 100 µM | GI50 (SK-MEL-5 melanoma): 9.2 µM | TGI (SK-MEL-5 melanoma): 30.1 µM | GI50 (SR leukemia): 1.39 µM | TGI (SR leukemia): 6.62 µM | GI50 (HS 578T breast): > 77.2 µM | TGI (HS 578T breast): > 100 µM | GI50 (CCRF-CEM leukemia): 2.02 µM | GI50 (KM12 colon): > 54.2 µM | TGI (KM12 colon): > 100 µM | GI50 (NCI/ADR-RES ovarian): 11.6 µM | TGI (NCI/ADR-RES ovarian): > 100 µM | GI50 (U251 CNS): 5.95 µM | TGI (U251 CNS): > 100 µM | GI50 (LOX IMVI melanoma): 6.87 µM | TGI (LOX IMVI melanoma): > 61.9 µM | GI50 (SNB-75 CNS): > 24.7 µM | TGI (SNB-75 CNS): > 75.5 µM | GI50 (TK-10 renal): > 70.2 µM | TGI (TK-10 renal): > 100 µM | GI50 (IGROV1 ovarian): 17.1 µM | TGI (IGROV1 ovarian): > 100 µM | GI50 (SF-539 CNS): 6.29 µM | TGI (SF-539 CNS): > 57.3 µM | GI50 (NCI-H226 lung): > 79.1 µM | TGI (NCI-H226 lung): > 100 µM | GI50 (DU-145 prostate): 4.01 µM | TGI (DU-145 prostate): > 48.1 µM | GI50 (UO-31 renal): 8.4 µM | TGI (UO-31 renal): > 100 µM | GI50 (HL-60(TB) leukemia): 4.11 µM | TGI (HL-60(TB) leukemia): 18 µM | GI50 (ACHN renal): 3.28 µM | TGI (ACHN renal): 14 µM | GI50 (UACC-62 melanoma): 4.6 µM | TGI (UACC-62 melanoma): > 100 µM | GI50 (SK-MEL-2 melanoma): > 100 µM | TGI (SK-MEL-2 melanoma): > 100 µM | GI50 (K-562 leukemia): 32.4 µM | TGI (K-562 leukemia): > 100 µM
